Earlier results in patent US5714511A, “Selective prevention of organ injury in sepsis and shock using selection release of nitric oxide in vulnerable organs” (The United States of America as represented by the …, priority 1995, dated 1998).

Tests used:
[1] = tested on: hemorrhagic shock in rats
[2] = tested on: DNA synthesis

CC(=O)N[C@H](C(=O)O)C(C)(C)SN=O [SNAP, S-nitroso-N-acetyl-penicillamine]
protective effect in hemorrhagic shock [1]: significant protective effects of SNAP in hemorrhagic shock in rats | inhibition of DNA synthesis [2]: effective at inhibiting DNA synthesis

Nitric oxide
solubility in aqueous media: limited solubility in aqueous media
